pIC50: −log10 of the molar value.
How the values were obtained:
CDK4/cyclin D3 = molecular target: T1, CDK4/cyclin D3 (Homo sapiens, UniProt P11802); experiment: Human CDK4/cyclin D3 inhibitory activity (QS S Assist CDK4/Cyclin D3_FP Kit, IMAP fluorescence polarization); type: biochemical; conditions: Human CDK4/cyclin D3 inhibitory activity; read-out: CDK4 Activity symbol
T1 construct: purchased Carna Biosciences, Inc. QS S Assist CDK4/Cyclin D3_FP Kit
Method in brief: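 Percent inhibition, relative to DMSO with and without enzyme, was curve-fitted to give IC50 from polarization (ex 485, em 535 nm). The 45-min room-temperature reaction used 12.5-25 ng/well enzyme, kit ATP/substrate/metal mix, and HEPES pH 7.4 buffer with Tween20 and DTT, followed by 30-min IMAP binding in the dark.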

CDK2/cyclin A2 = molecular target: T2, CDK2/cyclin A2 (Homo sapiens, UniProt P24941); experiment: Human CDK2/cyclin A2 inhibitory activity (QS S Assist CDK2/Cyclin A2_FP Kit, IMAP fluorescence polarization); type: biochemical; conditions: Human CDK2/cyclin A2 inhibitory activity; read-out: CDK2 Activity symbol
T2 construct: purchased Carna Biosciences, Inc. QS S Assist CDK2/Cyclin A2_FP Kit
Method in brief: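 Kinase activity read as fluorescence polarization (485/535 nm) after phosphorylated fluorescent substrate binds IMAP reagent (30 min, RT, dark). Enzyme (2.5 ng/well) reacted 60 min at RT with ATP/substrate/metal in HEPES pH 7.4 buffer with Tween 20 and DTT; no-enzyme wells define 0% activity; IC50 by curve fit.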

T1 sequence (P11802 whole entry): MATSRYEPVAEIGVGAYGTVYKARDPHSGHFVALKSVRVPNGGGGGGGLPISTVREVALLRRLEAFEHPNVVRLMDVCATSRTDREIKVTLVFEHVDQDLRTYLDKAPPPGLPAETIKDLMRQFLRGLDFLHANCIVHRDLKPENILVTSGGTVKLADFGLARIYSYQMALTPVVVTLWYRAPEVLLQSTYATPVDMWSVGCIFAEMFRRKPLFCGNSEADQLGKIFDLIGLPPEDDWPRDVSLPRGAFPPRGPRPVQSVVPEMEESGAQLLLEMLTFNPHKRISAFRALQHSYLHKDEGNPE
T1 sequence (P30281 whole entry partner): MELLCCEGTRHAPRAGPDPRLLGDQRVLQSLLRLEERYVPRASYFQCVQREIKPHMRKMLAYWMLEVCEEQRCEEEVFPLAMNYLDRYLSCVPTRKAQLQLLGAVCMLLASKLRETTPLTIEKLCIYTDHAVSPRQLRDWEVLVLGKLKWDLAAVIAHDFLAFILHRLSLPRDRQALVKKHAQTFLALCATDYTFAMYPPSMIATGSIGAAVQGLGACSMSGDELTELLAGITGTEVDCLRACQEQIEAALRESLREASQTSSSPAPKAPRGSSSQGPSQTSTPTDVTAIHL

pIC50 (CDK4/cyclin D3) | pIC50 (CDK2/cyclin A2) | Structure (SMILES)
> 8.00 | ≤ 7.00 | CNC(=O)C1CCN(Cc2ccc(Nc3ncc4cc([C@@H](C)OC)nc(NC(C)C)c4n3)nc2)CC1 [Compound 278]
7.00 to 8.00 | ≤ 7.00 | CO[C@H](C)c1cc2cnc(Nc3ccc(CN4CCOCC4(C)C)cn3)nc2c(NC(C)C)n1 [Compound 279]
≤ 7.00 | ≤ 7.00 | CO[C@H](C)c1cc2cnc(Nc3ccc(CN4[C@@H](C)COC[C@@H]4C)cn3)nc2c(NC(C)C)n1 [Compound 280]
7.00 to 8.00 | ≤ 7.00 | CO[C@H](C)c1cc2cnc(Nc3ccc(CN4CCN(CC(F)F)CC4)cn3)nc2c(NC(C)C)n1 [Compound 281]
> 8.00 | ≤ 7.00 | CO[C@H](C)c1cc2cnc(Nc3ccc(OCCN4CCOCC4)cn3)nc2c(NC(C)C)n1 [Compound 282]
> 8.00 | ≤ 7.00 | CO[C@H](C)c1cc2cnc(Nc3ccc(OCCCN(C)C)cn3)nc2c(NC(C)C)n1 [Compound 283]
> 8.00 | ≤ 7.00 | C[C@@H](O)c1cc2cnc(Nc3ccc(N4CCNCC4)nn3)nc2c(NCC2CCOC2)n1 (stereo partly shown) [Compound 284]
> 8.00 | ≤ 7.00 | CO[C@H](C)c1cc2cnc(Nc3ccc(N4CCNCC4)nn3)nc2c(NC2CCOCC2)n1 [Compound 285]
> 8.00 | ≤ 7.00 | CO[C@H](C)c1cc2cnc(Nc3ccc(N4CCCC(O)C4)nn3)nc2c(NC(C)C)n1 (stereo partly shown) [Compound 286]
> 8.00 | ≤ 7.00 | CO[C@H](C)c1cc2cnc(Nc3ccc(OCCN4CCCC4)cn3)nc2c(NC(C)C)n1 [Compound 287]
> 8.00 | ≤ 7.00 | CNCCOc1ccc(Nc2ncc3cc([C@@H](C)OC)nc(NC(C)C)c3n2)nc1 [Compound 288]
> 8.00 | ≤ 7.00 | CO[C@H](C)c1cc2cnc(Nc3ccc(OC4CCNCC4)cn3)nc2c(NC(C)C)n1 [Compound 289]
> 8.00 | ≤ 7.00 | CO[C@H](C)c1cc2cnc(Nc3ccc(OC4CCNC4)cn3)nc2c(NC(C)C)n1 (stereo partly shown) [Compound 290]
> 8.00 | ≤ 7.00 | CO[C@H](C)c1cc2cnc(Nc3ccc(CN4CCNCC4)cn3)nc2c(NC2CCOCC2)n1 [Compound 291]
7.00 to 8.00 | ≤ 7.00 | COCC(C)(C)Nc1nc([C@@H](C)O)cc2cnc(Nc3ccc(CN4CC[C@@H](F)C4)cn3)nc12 [Compound 292]
> 8.00 | ≤ 7.00 | COCC(C)(C)Nc1nc([C@@H](C)O)cc2cnc(Nc3ccc(CN4CCCOCC4)cn3)nc12 [Compound 293]
> 8.00 | ≤ 7.00 | COCC(C)(C)Nc1nc([C@@H](C)O)cc2cnc(Nc3ccc(CN4CCC(OC)CC4)cn3)nc12 [Compound 294]
7.00 to 8.00 | ≤ 7.00 | COCC(C)(C)Nc1nc([C@@H](C)O)cc2cnc(Nc3ccc(CN4CCn5ccnc5C4)cn3)nc12 [Compound 295]
≤ 7.00 | ≤ 7.00 | COCC(C)(C)Nc1nc([C@@H](C)O)cc2cnc(Nc3ccc(CN4CCc5nc(C)[nH]c5C4)cn3)nc12 [Compound 296]
> 8.00 | ≤ 7.00 | CNC(=O)C1CCN(Cc2ccc(Nc3ncc4cc([C@@H](C)O)nc(NC(C)(C)COC)c4n3)nc2)CC1 [Compound 297]

pIC50 (CDK4/cyclin D3) | pIC50 (CDK2/cyclin A2) | Structure (SMILES)
7.00 to 8.00 | ≤ 7.00 | COCC(C)(C)Nc1nc([C@@H](C)O)cc2cnc(Nc3ccc(CN4CCOCC4(C)C)cn3)nc12 [Compound 298]
7.00 to 8.00 | ≤ 7.00 | COCC(C)(C)Nc1nc([C@@H](C)O)cc2cnc(Nc3ccc(CN4CCN(CC(F)F)CC4)cn3)nc12 [Compound 299]
> 8.00 | ≤ 7.00 | CO[C@H](C)c1cc2cnc(Nc3ccc(CN4CCNCC4)cn3)nc2c(N[C@@H]2CCCOC2)n1 [Compound 301]
> 8.00 | ≤ 7.00 | CO[C@H](C)c1cc2cnc(Nc3ccc(CN4CCNCC4)cn3)nc2c(N[C@@H]2CCOC2)n1 [Compound 303]
> 8.00 | ≤ 7.00 | CO[C@H](C)c1cc2cnc(Nc3ccc(N4CCNCC4)nn3)nc2c(N[C@@H]2CCCOC2)n1 [Compound 305]
7.00 to 8.00 | ≤ 7.00 | CO[C@H](C)c1cc2cnc(Nc3ccc(N4CCNCC4)nn3)nc2c(N[C@H]2CCOC2)n1 [Compound 306]
> 8.00 | ≤ 7.00 | CO[C@H](C)c1cc2cnc(Nc3ccc(N4CCNCC4)nn3)nc2c(N[C@@H]2CCOC2)n1 [Compound 307]
≤ 7.00 | ≤ 7.00 | C[C@@H](O)c1cc2cnc(Nc3ccc(N4CCNCC4)nn3)nc2c(NC2CCCCC2C(=O)O)n1 (stereo partly shown) [Compound 308]
≤ 7.00 | ≤ 7.00 | C[C@@H](O)c1cc2cnc(Nc3ccc(N4CCNCC4)nn3)nc2c(NC2CCCC2C(=O)O)n1 (stereo partly shown) [Compound 309]
> 8.00 | ≤ 7.00 | CCO[C@H](C)c1cc2cnc(Nc3ccc(N4CCNCC4)nn3)nc2c(NC(C)C)n1 [Compound 310]
> 8.00 | ≤ 7.00 | CO[C@H](C)c1cc2cnc(Nc3ccc(C4CCNCC4)nn3)nc2c(NC(C)C)n1 [Compound 311]
> 8.00 | ≤ 7.00 | C[C@@H](O)c1cc2cnc(Nc3ccc(CN4CCNCC4)cn3)nc2c(NCC2CCOCC2)n1 [Compound 312]
> 8.00 | ≤ 7.00 | C[C@@H](O)c1cc2cnc(Nc3ccc(N4CCNCC4)nn3)nc2c(NCC2CCOCC2)n1 [Compound 313]
> 8.00 | ≤ 7.00 | C[C@@H](O)c1cc2cnc(Nc3ccc(CN4CCNCC4)cn3)nc2c(NC2CCS(=O)(=O)CC2)n1 [Compound 314]
≤ 7.00 | ≤ 7.00 | C[C@@H](O)c1cc2cnc(Nc3ccc(N4CCNCC4)nn3)nc2c(NC(C)(C)C(=O)O)n1 [Compound 315]
≤ 7.00 | ≤ 7.00 | C[C@@H](O)c1cc2cnc(Nc3ccc(N4CCNCC4)nn3)nc2c(NC2(C(=O)O)CCCC2)n1 [Compound 316]
> 8.00 | ≤ 7.00 | C[C@@H](O)c1cc2cnc(Nc3ccc(C4CCNCC4)nn3)nc2c(NC2CCOCC2)n1 [Compound 317]
> 8.00 | ≤ 7.00 | CC(C)Nc1nc([C@@H](C)O)cc2cnc(Nc3ccc(C4CCNCC4)nn3)nc12 [Compound 318]
> 8.00 | ≤ 7.00 | CC(C)Nc1nc([C@@H](C)O)cc2cnc(Nc3ccc(N4CCN(C=O)CC4=O)cn3)nc12 [Compound 319]
> 8.00 | ≤ 7.00 | CO[C@H](C)c1cc2cnc(Nc3ccc(CN4CCNCC4)cn3)nc2c(NCC2CCOC2)n1 (stereo partly shown) [Compound 320]

pIC50 (CDK4/cyclin D3) | pIC50 (CDK2/cyclin A2) | Structure (SMILES)
> 8.00 | ≤ 7.00 | CO[C@H](C)c1cc2cnc(Nc3ccc(N4CCNCC4)nn3)nc2c(NCC2CCOC2)n1 (stereo partly shown) [Compound 321]
7.00 to 8.00 | ≤ 7.00 | C[C@@H](O)c1cc2cnc(Nc3ccc(N4CCNCC4)nn3)nc2c(NC2CCS(=O)(=O)CC2)n1 [Compound 322]
> 8.00 | ≤ 7.00 | C[C@@H](O)c1cc2cnc(Nc3ccc(CN4CCNCC4)cn3)nc2c(NCC2CCOC2)n1 (stereo partly shown) [Compound 323]
≤ 7.00 | ≤ 7.00 | C[C@@H](O)c1cc2cnc(Nc3ccc(CN4CCNCC4)cn3)nc2c(NC2CCCC2C(=O)O)n1 (stereo partly shown) [Compound 324]
7.00 to 8.00 | ≤ 7.00 | C[C@@H](O)c1cc2cnc(Nc3ccc(CN4CCNCC4)cn3)nc2c(NC2(C(=O)O)CCCC2)n1 [Compound 325]
> 8.00 | ≤ 7.00 | C[C@@H](O)c1nc(NC2CCOCC2)c2nc(Nc3ccc(CN4CCNCC4)cn3)ncc2c1Cl [Compound 326]
7.00 to 8.00 | ≤ 7.00 | C[C@@H](O)c1cc2cnc(Nc3ccc(N4CCNCC4)nn3)nc2c(NC(C)(C)CC(=O)O)n1 [Compound 327]
> 8.00 | ≤ 7.00 | CC(=O)c1cc2cnc(Nc3ccc(N4CCNCC4)nn3)nc2c(NC(C)C)n1 [Compound 328]
> 8.00 | ≤ 7.00 | CC(=O)c1cc2cnc(Nc3ccc(CN4CCNCC4)cn3)nc2c(NC(C)C)n1 [Compound 329]
> 8.00 | ≤ 7.00 | CC(=O)c1cc2cnc(Nc3ccc(N4CCNCC4)nn3)nc2c(NC2CCOCC2)n1 [Compound 330]
≤ 7.00 | ≤ 7.00 | CO[C@H](C)c1cc2cnc(Nc3ccc(-c4cccnc4)cn3)nc2c(NC(C)C)n1 [Compound 331]
> 8.00 | ≤ 7.00 | CO[C@H](C)c1cc2cnc(Nc3ccc(C4CCCNC4)cn3)nc2c(NC(C)C)n1 (stereo partly shown) [Compound 332]
> 8.00 | ≤ 7.00 | COCC(C)(C)Nc1nc([C@@H](C)O)cc2cnc(Nc3ccc(C4CCCNC4)cn3)nc12 (stereo partly shown) [Compound 333]
7.00 to 8.00 | ≤ 7.00 | CO[C@H](C)c1cc2cnc(Nc3ccc(N4CCC(O)C4)nn3)nc2c(NC(C)C)n1 (stereo partly shown) [Compound 334]
> 8.00 | ≤ 7.00 | CO[C@H](C)c1cc2cnc(Nc3ccc(N4CCN(C(=O)CO)CC4)nn3)nc2c(NC(C)C)n1 [Compound 335]
> 8.00 | ≤ 7.00 | CO[C@H](C)c1cc2cnc(Nc3ccc(NC4CCNCC4)nn3)nc2c(NC(C)C)n1 [Compound 336]
> 8.00 | ≤ 7.00 | C[C@@H](O)c1nc(NC2CCOCC2)c2nc(Nc3ccc(N4CCNCC4)nn3)ncc2c1Cl [Compound 337]
> 8.00 | ≤ 7.00 | C[C@@H](O)c1cc2cnc(Nc3ccc(N4CCNCC4)nn3)nc2c(N[C@H]2CC[C@H](C(=O)O)CC2)n1 [Compound 338]
7.00 to 8.00 | ≤ 7.00 | CO[C@H](C)c1cc2cnc(Nc3ccc(N4CCNCC4)nn3)nc2c(N[C@H]2CC[C@H](C(=O)O)CC2)n1 [Compound 339]
